Reference: US8309790B2, “Animal models for demyelination disorders” (University of Chicago, priority 2005, dated 2012)
Where two headings read alike, the source gives them in different places.

What was measured:
[1] = system: Hippocampal organotypic cultures; assay: Hippocampal organotypic cultures (HOC), in vitro model of myelination, MBP Western blot; assay type: cell-based; conditions: for reduction of MBP expression elicited by IFN-γ exposure: SAL at various concentrations combined with 100 U/ml IFN-γ for 7 days
Description: Our hypothesis is that the integrated stress response has the potential to protect oligodendrocytes from the harmful effects of the inflammatory response in patients with multiple sclerosis (MS). […] To test whether agents that prolong eIF2α phosphorylation might provide protection to oligodendrocytes against detrimental inflammatory factors, the effect of Salubrinol (Sal) in the presence of the immune cytokine IFN-γ was tested in an in vitro model of myelination.
HOCs, were prepared and maintained as described previously (Kunkler and Kraig (1997) J Cereb Blood Flow Metab. 17:26-43), and were maintained in vitro for 7 days before use. SAL at various concentrations was combined with 100 U/ml IFN-γ and added to the HOC cultures for 7 days. […] After 7 days of 100 U/ml IFN-γ exposure, the levels of MBP decreased approximately 80% in the HOCs (FIG. 29).

PP1-GADD34 phosphatase = conditions: results in sustained eIF2α phosphorylation, cited from earlier work
[2] = system: transgenic littermates overexpressing IFN-γ and/or SOCS1; assay: IFN-γ-overexpressing mice crossed to PLP/SOCS1 mice, clinical and histological evaluation at postnatal day 21; assay type: in vivo; conditions: for Incidence of tremor: ten mice per group; for oligodendrocyte density: corpus callosum, postnatal day 21
Text: The transgenic mice MBP/IFN-γ and GFAP/tTA×TRE/IFN-γ (lines 184/110 and 184/67) that overexpress IFN-γ in the CNS have been described elsewhere (Corbin et al., 1996; Gao et al., 2000; Lin et al., 2004, 2005). Briefly, MBP/IFN-γ mice are transgenic animals in which IFN-γ expression is driven by the myelin basic protein (MBP) transcriptional control region (Gao et al., 2000). GFAP/tTA×TRE/IFN-γ are double-transgenic mice obtained by mating single-transgenic GFAP/tTA to single-transgenic TRE/IFN-γ (lines 110 and 67) mice. The two TRE/IFN-γ mouse lines, line 110 and line 67, used in the experiments produce different amounts of IFN-γ when crossed to GFA/tTA mice (184/110 and 184/67) (Lin e al., 2004, 2005). GFAP/tTA×TRE/IFN-γ is a tetracycline-off-inducible system in which the glial fibrilary acidic protein (GFAP) transcriptional control region drives the expression of tTA, which in turn, binds to the TRE (tet responsive element) and initiates the expression of IFN-γ. Administration of doxycycline suppresses tTA DNA binding and IFN-γ expression, and doxycycline removal allows for temporally-controlled induction of IFN-γ expression (Gao et al., 1999).
IFN-γ-overexpressing mice were crossed to the PLP/SOCS1 mice in double-transgenic, (MBP/IFN-γ×PLP/SOCS1) and triple-transgenic (GFAP/tTA×TRE/IFN-γ×PLP/SOCS1) mating systems. MBP/IFN-γ×PLP/SOCS1 (172×PLP/SOCS1) mating was performed according to a standard mating protocol. The GFAP/tTA×TRE/IFN-γ×PLP/SOCS1 matings were performed in a 2-step mating process: GFAP/tTA mice were initially crossed to PLP/SOCS1 mice, and double-positive (184×PLP/SOCS1) offspring were then crossed to the TRE/IFN-γ lines 110 and 67, separately. This second mating step was performed according to the previously described “tet-off” protocol. Doxycycline 0.05 mg/ml (Sigma-Aldich) was added to the water of impregnated female mice until embryonic day 14, after which the animals were switched back to normal water, thereby allowing initiation of IFN-γ transcription, which peaks during the postnatal period (Lin et al., 2005).
The litters of the mating systems (F1 generation) were examined daily and sacrificed at postnatal day 21. Clinical evaluation included behavioral observation and challenged ladder walking to elicit tremor. Histological examination included quantitation of the number and density of oligodendrocytes and examination of the myelination patterns. Brain tissue was simultaneously obtained from each animal at the time of sacrifice to verify and measure the expression of IFN-γ and Flag-SOCS1 (see below). The clinical and histological findings were subsequently stratified according to genotype. All animal procedures were conducted in compliance with the National Institutes of Health Guide for Care and Use of Laboratory Animals and were approved by the Institutional Animal Care and Use Committee at The University of Chicago.
Oligodendrocyte cell density was assessed digitally using Axiovision software, at postnatal day 21, as previously described (Lin et al., 2005). The brains were sectioned sagittally through the corpus callosum dividing the brain in two symmetrical halves. Ten frozen sections from each half were prepared at 7 μm thickness, and numbered in the sequence of their preparation. The brains of three animals per study group were prepared in this fashion. Following the CC1 immunostaining the corresponding area of corpus callosum of each section was digitally selected and the corresponding total area obtained. CC1 cell counting was performed manually within the selected areas of each section, and the number of CC1 positive cells per square area (mm^2) calculated. The results were presented as mean±SD of CC1 (+) cells/mm^2 with n=3 animals per study group. […]

With `O=C(/C=C/c1ccccc1)NC(NC(=S)Nc1cccc2cccnc12)C(Cl)(Cl)Cl` (stereo not shown) [SAL, salubrinal] the “reduction of MBP expression elicited by IFN-γ exposure” value [1] was “markedly attenuated”, the “reduction of MBP expression elicited by IFN-γ exposure” value ([1]; listed as Sal) was “attenuating effect” and the MBP expression ([1]; SAL treatment alone) was “did not affect”. For the same molecule, the PP1-GADD34 phosphatase activity (PP1-GADD34 phosphatase) was “specifically inhibits” and the PP1-GADD34 phosphatase activity (PP1-GADD34 phosphatase; listed as Salubrinol) was “specifically inhibit”.

B1: suppressor of cytokine signaling 1 (protein, UniProt O35716 1-212, looked up)
Suppressor of cytokine …: MVARNQVAADNAISPAAEPRRRSEPSSSSSSSSPAAPVRPRPCPAVPAPAPGDTHFRTFRSHSDYRRITRTSALLDACGFYWGPLSVHGAHERLRAEPVGTFLVRDSRQRNCFFALSVKMASGPTSIRVHFQAGRFHLDGSRETFDCLFELLEHYVAAPRRMLGAPLRQRRVRPLQELCRQRIVAAVGRENLARIPLNPVLRDYLSSFPFQI
modifications: Flag tag
With B1 the Incidence of tremor ([2]; 172 × PLP/SOCS1 mating system) was 0%, the Incidence of tremor ([2]; 184/67 × PLP/SOCS1 mating system) was 0% and the oligodendrocyte density ([2]; 184/67 × PLP/SOCS1 system) was 142±5 CC1 (+) cells/mm^2. The Incidence of tremor ([2]; 184/110 × PLP/SOCS1 mating system) was 0% and the oligodendrocyte density ([2]; 184/110 × PLP/SOCS1 system) was 141±6 CC1 (+) cells/mm^2.
